Results on 33 molecules are retold here after ChEMBL document CHEMBL5505975, “Design, synthesis and biological evaluation of CDC20 inhibitors for treatment of triple-negative breast cancer” (Eur J Med Chem, 2024).

The IC50 is the concentration at which inhibition is half-maximal.

In series [1] the test system is MCF7. The series can be described thus: Antiproliferative activity against human MCF7 cells assessed as reduction in cell viability incubated for 96 hrs by MTT assay. To be noted: MCF7, 96 h. On the technique in general: Tetrazolium dyes change colour on reduction, which living cells bring about.
Series [2] deals with MDA-MB-231. The series can be described thus: Antiproliferative activity against human MDA-MB-231 cells assessed as reduction in cell viability incubated for 96 hrs by MTT assay. To be noted: MDA-MB-231, 96 h.
Series [3] deals with A549. Kind of series: Antiproliferative activity against human A549 cells assessed as reduction in cell viability incubated for 96 hrs by MTT assay. To be noted: A549, 96 h.
Series [4] has as its system MDA-MB-468. The series can be described thus: Antiproliferative activity against human MDA-MB-468 cells assessed as reduction in cell viability incubated for 96 hrs by MTT assay. To be noted: MDA-MB-468, 96 h.
A short description of series [5]: Cytotoxicity against human L02 cells assessed as reduction in cell viability incubated for 96 hrs by MTT assay. The format is toxicity, cell-based.

Regarding `CCCc1ccc(Nc2nc(NC(NC(=O)CC)C(Cl)(Cl)Cl)nc3[nH]ccc23)cc1` (stereo not given), the IC50 in series [1], in series [2], in series [3] and in series [4] was more than 20 µM in each case. Besides, in series [5], the IC50 at 96 h was more than 20 µM.

For the molecule `CCC(=O)NC(Nc1nc(Nc2cc(OC)cc(OC)c2)c2cc[nH]c2n1)C(Cl)(Cl)Cl` (stereo not given), the IC50 in series [1], in series [2], in series [3] and in series [4] was more than 20 µM in each case. Also, in series [5], the 50% inhibitory concentration (IC50) at 96 h was more than 20 µM.

Turning to `CCC(=O)NC(Nc1nc(Nc2ccc(OC)cc2)c2cc[nH]c2n1)C(Cl)(Cl)Cl` (stereo not given), the half-inhibitory concentration (IC50) in series [1], in series [2], in series [3] and in series [4] was more than 20 µM each time. Further, in series [5], the IC50 at 96 h is more than 20 µM.

In the case of `CCC(=O)NC(n1cnc2c(Nc3ccc(OC)cc3)nc(N)nc21)C(Cl)(Cl)Cl` (stereo not given), the IC50 in series [1], in series [2], in series [3] and in series [4] was more than 20 µM each time. For the same molecule, in series [5], the 50% inhibitory concentration (IC50) at 96 h is more than 20 µM.

As to `COc1cc(Nc2nc(NC(NC(=O)C3CCCCC3)C(Cl)(Cl)Cl)nc3[nH]ccc23)cc(OC)c1OC` (stereo not given), the IC50 in series [1] came out at 13.7 µM; in series [2], 11.4 µM; in series [3], 10.8 µM; in series [4] it was 12.3 µM. The concentration for half-maximal inhibition (IC50) at 96 h in series [5] was determined as 14 µM.

On to `CCC(=O)NC(Nc1nc(Nc2ccc3scnc3c2)c2cc[nH]c2n1)C(Cl)(Cl)Cl` (stereo not given), for which the half-inhibitory concentration (IC50) in series [1], in series [2], in series [3] and in series [4] was more than 20 µM in each case. Further, in series [5], the IC50 at 96 h was more than 20 µM.

As for `CCCCC(=O)NC(Nc1nc(Nc2ccc(C(F)(F)F)cc2)c2cc[nH]c2n1)C(Cl)(Cl)Cl` (stereo not given), the 50% inhibitory concentration (IC50) in series [1] came out at 7.58 µM; in series [2] it was 7.36 µM; in series [3], 7.26 µM; in series [4] it was 13.2 µM. The 50% inhibitory concentration (IC50) at 96 h in series [5] worked out at 8.85 µM.

As for `CCCCCC(=O)NC(Nc1nc(Nc2ccc(C(F)(F)F)cc2)c2cc[nH]c2n1)C(Cl)(Cl)Cl` (stereo not given), the IC50 amounted to 6.97 µM in series [1], 6.15 µM in series [2], 8.36 µM in series [3] and 12 µM in series [4]. Further, the IC50 at 96 h in series [5] stood at 14.4 µM.

Take `O=C(NC(Nc1nc(Nc2ccc(C(F)(F)F)cc2)c2cc[nH]c2n1)C(Cl)(Cl)Cl)C1CCCCC1` (stereo not given): the IC50 in series [1] is 8.17 µM; in series [2] it was 8.69 µM; in series [3] it was 9.3 µM; in series [4] it was 9.15 µM. For the same molecule, the IC50 at 96 h in series [5] turned out to be 11.6 µM.

In the case of `CCC(=O)NC(n1cnc2c(Nc3ccc(OC)c(Cl)c3)nc(N)nc21)C(Cl)(Cl)Cl` (stereo not given), the IC50 in series [1], in series [2], in series [3] and in series [4] was more than 20 µM throughout. The concentration for half-maximal inhibition (IC50) at 96 h in series [5] was more than 20 µM.

On to `CCC(=O)NC(Nc1nc(Nc2ccc(C(F)(F)F)cc2F)c2cc[nH]c2n1)C(Cl)(Cl)Cl` (stereo not given), for which the IC50 in series [1] is 13.6 µM; in series [2] it was 12.6 µM; in series [3], 11.2 µM; in series [4] it was 14.1 µM. In series [5], the IC50 at 96 h was found to be 14 µM.

Consider `CCCC(=O)NC(Nc1nc(Nc2ccc(C(F)(F)F)cc2)c2cc[nH]c2n1)C(Cl)(Cl)Cl` (stereo not given), for which the IC50 was determined as 6.58 µM in series [1], 7.32 µM in series [2], 7.32 µM in series [3] and 9.62 µM in series [4]. Moreover, the half-inhibitory concentration (IC50) at 96 h in series [5] amounted to 10.2 µM.

For the molecule `O=C(NC(Nc1nc(Nc2ccc(C(F)(F)F)cc2)c2cc[nH]c2n1)C(Cl)(Cl)Cl)C1CC1` (stereo not given), the 50% inhibitory concentration (IC50) in series [1] was found to be 6.71 µM; in series [2], 5.97 µM; in series [3], 6.66 µM; in series [4], 10.2 µM. Further, the concentration for half-maximal inhibition (IC50) at 96 h in series [5] stood at 16.1 µM.

Consider `CCC(=O)NC(Nc1nc(Nc2ccc(OC)c(OC)c2)c2cc[nH]c2n1)C(Cl)(Cl)Cl` (stereo not given), for which the half-maximal inhibitory concentration (IC50) in series [1], in series [2], in series [3] and in series [4] was more than 20 µM throughout. Further, the IC50 at 96 h in series [5] is more than 20 µM.

For the molecule `CCCCCC(=O)NC(Nc1nc(Nc2cc(OC)c(OC)c(OC)c2)c2cc[nH]c2n1)C(Cl)(Cl)Cl` (stereo not given), the IC50 came to 16.7 µM in series [1], 8.25 µM in series [2], 10.8 µM in series [3] and 15.2 µM in series [4]. In addition, the IC50 at 96 h in series [5] was 12.3 µM.

As to `CCC(=O)NC(Nc1nc(Nc2cc(F)c(OC)c(F)c2)c2cc[nH]c2n1)C(Cl)(Cl)Cl` (stereo not given), the concentration for half-maximal inhibition (IC50) in series [1] came to 7.2 µM; in series [2], 8.07 µM; in series [3] it was 8.79 µM; in series [4], 10.4 µM. Further, the IC50 at 96 h in series [5] is 14.5 µM.

As for `CCCC(=O)NC(Nc1nc(Nc2cc(OC)cc(OC)c2)c2cc[nH]c2n1)C(Cl)(Cl)Cl` (stereo not given), the IC50 in series [1], in series [2], in series [3] and in series [4] was more than 20 µM throughout. The IC50 at 96 h in series [5] is more than 20 µM.

Consider `CCC(=O)NC(Nc1nc(Nc2ccc(OC)c(Cl)c2)c2cc[nH]c2n1)C(Cl)(Cl)Cl` (stereo not given), for which the half-maximal inhibitory concentration (IC50) in series [1], in series [2], in series [3] and in series [4] was more than 20 µM each time. The 50% inhibitory concentration (IC50) at 96 h in series [5] was more than 20 µM.

Regarding `CCCCC(=O)NC(Nc1nc(Nc2cc(OC)cc(OC)c2)c2cc[nH]c2n1)C(Cl)(Cl)Cl` (stereo not given), the IC50 in series [1], in series [2], in series [3] and in series [4] was more than 20 µM throughout. For the same molecule, in series [5], the IC50 at 96 h is more than 20 µM.

As to `CCC(=O)NC(Nc1nc(Nc2ccc(OC(F)(F)F)c(F)c2)c2cc[nH]c2n1)C(Cl)(Cl)Cl` (stereo not given), the IC50 in series [1] is 9.27 µM; in series [2] it was 10.1 µM; in series [3], 7.52 µM; in series [4] it was more than 20 µM. Further, in series [5], the IC50 at 96 h came out at 7.55 µM.

Consider `CCCC(=O)NC(Nc1nc(Nc2cc(OC)c(OC)c(OC)c2)c2cc[nH]c2n1)C(Cl)(Cl)Cl` (stereo not given), for which the 50% inhibitory concentration (IC50) in series [1] is 19.6 µM; in series [2], 9.91 µM; in series [3] it was more than 20 µM; in series [4], 17.2 µM. The IC50 at 96 h in series [5] was 14.4 µM.

On to `O=C(NC(Nc1nccc(Nc2ccc(C(F)(F)F)cc2)n1)C(Cl)(Cl)Cl)C1CC1` (stereo not given), for which the IC50 in series [1], in series [2], in series [3] and in series [4] was more than 20 µM each time. For the same molecule, in series [5], the IC50 at 96 h was more than 20 µM.

As to `CCC(=O)NC(n1cnc2c(Nc3cc(OC)cc(OC)c3)nc(N)nc21)C(Cl)(Cl)Cl` (stereo not given), the IC50 in series [1], in series [2], in series [3] and in series [4] was more than 20 µM each time. Also, the half-inhibitory concentration (IC50) at 96 h in series [5] is more than 20 µM.

As for `CCC(=O)NC(Nc1nc(Nc2ccc(C(F)(F)F)cc2)c2cc[nH]c2n1)C(Cl)(Cl)Cl` (stereo not given), the IC50 came out at 6.21 µM in series [1], 7.79 µM in series [2], 7.98 µM in series [3] and 10.1 µM in series [4]. Moreover, the IC50 at 96 h in series [5] amounted to 12.8 µM.

As to `CCC(=O)NC(n1cnc2c(Nc3ccc4c(c3)OCO4)nc(N)nc21)C(Cl)(Cl)Cl` (stereo not given), the IC50 in series [1], in series [2], in series [3] and in series [4] was more than 20 µM in each case. Besides, the IC50 at 96 h in series [5] was more than 20 µM.

Consider `CCCCCC(=O)NC(Nc1nc(Nc2cc(OC)cc(OC)c2)c2cc[nH]c2n1)C(Cl)(Cl)Cl` (stereo not given), for which the IC50 in series [1], in series [2], in series [3] and in series [4] was more than 20 µM each time. Also, the IC50 at 96 h in series [5] is more than 20 µM.

Consider `CCC(=O)NC(Nc1nc(Nc2ccc(C(F)(F)F)nc2)c2cc[nH]c2n1)C(Cl)(Cl)Cl` (stereo not given), for which the IC50 was more than 20 µM in series [1], 19.8 µM in series [2], more than 20 µM in series [3] and more than 20 µM in series [4]. Also, in series [5], the IC50 at 96 h is more than 20 µM.

Regarding `CCC(=O)NC(Nc1nc(Nc2cc(OC)c(OC)c(OC)c2)c2cc[nH]c2n1)C(Cl)(Cl)Cl` (stereo not given), the IC50 in series [1] was determined as 14.7 µM; in series [2], 8.81 µM; in series [3], 11.6 µM; in series [4] it was 15.9 µM. Also, the IC50 at 96 h in series [5] is 9.01 µM.

As for `CCC(=O)NC(Nc1nc(Nc2ccc(C(F)(F)F)cc2Cl)c2cc[nH]c2n1)C(Cl)(Cl)Cl` (stereo not given), the half-maximal inhibitory concentration (IC50) was 17.7 µM in series [1], 12.7 µM in series [2], 6.92 µM in series [3] and more than 20 µM in series [4]. Besides, in series [5], the 50% inhibitory concentration (IC50) at 96 h was 14.5 µM.

Turning to `COc1cc(Nc2nc(NC(NC(=O)C3CCCCC3)C(Cl)(Cl)Cl)nc3[nH]ccc23)cc(OC)c1` (stereo not given), the half-inhibitory concentration (IC50) in series [1], in series [2], in series [3] and in series [4] was more than 20 µM in each case. Also, the IC50 at 96 h in series [5] is more than 20 µM.

As for `CCCCC(=O)NC(Nc1nc(Nc2cc(OC)c(OC)c(OC)c2)c2cc[nH]c2n1)C(Cl)(Cl)Cl` (stereo not given), the IC50 in series [1] was 19.4 µM; in series [2] it was 10.5 µM; in series [3] it was 14.3 µM; in series [4], more than 20 µM. Moreover, the IC50 at 96 h in series [5] was more than 20 µM.

For the molecule `CCC(=O)NC(Nc1nc(Nc2ccc(OC(F)(F)F)cc2)c2cc[nH]c2n1)C(Cl)(Cl)Cl` (stereo not given), the half-inhibitory concentration (IC50) is 11.8 µM in series [1], 16.1 µM in series [2], 11.3 µM in series [3] and 18.1 µM in series [4]. For the same molecule, the half-inhibitory concentration (IC50) at 96 h in series [5] came out at 25.3 µM.

In the case of `CCC(=O)NC(n1cnc2c(Nc3ccc(C(F)(F)F)cc3)nc(N)nc21)C(Cl)(Cl)Cl` (stereo not given), the IC50 in series [1] is 10.2 µM; in series [2] it was 9.56 µM; in series [3], 10.4 µM; in series [4], 11.3 µM. For the same molecule, the 50% inhibitory concentration (IC50) at 96 h in series [5] was determined as 12.3 µM.
